Tests used:
armyworm = experiment: bioactivity test against armyworm, airbrush spray; type: in vivo; settings: 72 h; for pest or weed control at 600 µg/mL: 600 mg/L; for pest or weed control at 600 µg/mL / pest or weed control at 10 µg/mL / pest or weed control at 100 µg/mL: read-out: Insecticidal activity against armyworm (%); for pest or weed control at 10 µg/mL: 10 mg/L; for pest or weed control at 100 µg/mL: 100 mg/L
[1] = system: Green peach aphids (Myzus Persicae Sulzer); experiment: bioactivity test against green peach aphid, airbrush foliar spray; type: in vivo; settings: for pest or weed control at 600 µg/mL: 600 mg/L; for pest or weed control at 600 µg/mL / pest or weed control at 10 µg/mL / pest or weed control at 100 µg/mL / pest or weed control at 1.25 µg/mL / pest or weed control at 2.5 µg/mL / pest or weed control at 5 µg/mL: contrastive test, read-out: Insecticidal activity against peach aphid (%); for pest or weed control at 10 µg/mL: 10 mg/L; for pest or weed control at 100 µg/mL: 100 mg/L; for pest or weed control at 1.25 µg/mL: 1.25 mg/L; for pest or weed control at 2.5 µg/mL: 2.5 mg/L; for pest or weed control at 5 µg/mL: 5 mg/L
Summary of the method: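 Aphids (15-30 per cabbage leaf disc) on moist filter paper were airbrush-sprayed at 10 psi, 0.5 mL, with compound from acetone:methanol (1:1) diluted in water with 0.1% tween 80. Held at 25±1 C, 60±5% RH; survivors counted after 48 hrs to give death rates.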

cucumber gray mold = experiment: fungicidal activity in vitro (inhibition rate) against cucumber gray mold; type: cell-based; settings: 25 ppm, in vitro; read-out: inhibition rate against cucumber gray mold
wheat powdery mildew = experiment: protectant activity in vivo against wheat powdery mildew; settings: Triticum aestivum, 168 h; for pest or weed control at 400 µg/mL: read-out: control effect against wheat powdery mildew (%), 400 mg/L; for pest or weed control at 25 ppm: read-out: protectant activity against wheat powdery mildew in vivo, 25 ppm; for pest or weed control at 100 ppm: read-out: protectant activity against wheat powdery mildew in vivo, 100 ppm; for pest or weed control at 400 ppm: read-out: protectant activity against wheat powdery mildew in vivo, 400 ppm
cucumber downy mildew = experiment: protectant activity in vivo against cucumber downy mildew; settings: Cucumis sativus, 168 h; for pest or weed control at 25 µg/mL: read-out: control effect against cucumber downy mildew (%), 25 mg/L; for pest or weed control at 50 µg/mL: read-out: control effect against cucumber downy mildew (%), 50 mg/L; for pest or weed control at 100 µg/mL: read-out: control effect against cucumber downy mildew (%), 100 mg/L; for pest or weed control at 400 µg/mL: read-out: control effect against cucumber downy mildew (%), 400 mg/L; for pest or weed control at 100 ppm: read-out: protectant activity against cucumber downy mildew in vivo, 100 ppm
Diamond back moth = experiment: insecticidal activity against diamond back moth, airbrush spray; type: in vivo; settings: 72 h; for pest or weed control at 600 µg/mL: 600 mg/L
Summary of the method: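 Airbrush leaf-disc spray test: both faces of 2 cm cabbage discs received 0.5 ml of test solution at 0.7 kg/cm^2. Solutions were made in acetone:methanol (1:1) and brought to concentration with 0.1% Tween 80 in water. Ten second-instar larvae per disc, triplicates, were held at 25° C and 60˜70% R.H., with mortality recorded at 72 hrs.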

rice blast = experiment: microbe, parasite or virus in culture; type: cell-based; settings: Pyricularia oryzae, read-out: inhibition rate against rice blast, 25 ppm, in vitro
corn rust = experiment: protectant activity in vivo against corn rust; settings: Zea mays, 168 h; for pest or weed control at 400 µg/mL: read-out: control effect against corn rust (%), 400 mg/L, protectant activity; for pest or weed control at 100 ppm: read-out: protectant activity against corn rust in vivo, 100 ppm; for pest or weed control at 400 ppm: read-out: protectant activity against corn rust in vivo, 400 ppm
carmine spider mite = experiment: bioactivity test against carmine spider mite, airbrush spray; type: in vivo; settings: for pest or weed control at 600 µg/mL: 600 mg/L; for pest or weed control at 600 µg/mL / pest or weed control at 10 µg/mL / pest or weed control at 100 µg/mL: contrastive test, read-out: Insecticidal activity against carmine spider mite (% ); for pest or weed control at 10 µg/mL: 10 mg/L; for pest or weed control at 100 µg/mL: 100 mg/L
Summary of the method: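 Broadbean seedlings infested with adult mites were sprayed with compound (acetone/methanol stock diluted in 0.1% Tween 80 water) by airbrush at 0.7 kg/cm^2, 0.5 ml. Three replicates were run. Mortality was scored after 72 hrs.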

[2] = Myzus persicae, foliar, 48 h, death rate after 48 hrs
[3] = mortality after 72 hrs, read-out: control (test results against diamond back moth)
[4] = Tetranychus cinnabarinus, 72 h, mortality after 72 hrs

CCc1ncnc(NC(=O)Cc2ccc(Oc3ccc(C(F)(F)F)cn3)cc2)c1Cl [CK55, reference compound]
60%: pest or weed control at 400 µg/mL (wheat powdery mildew; protectant activity)
0%: pest or weed control at 600 µg/mL (armyworm) | pest or weed control at 600 µg/mL ([1]; Myzus persicae, foliar, 48 h) | inhibition at 25 ppm (cucumber gray mold) | pest or weed control at 25 µg/mL (cucumber downy mildew; protectant activity) | pest or weed control at 50 µg/mL (cucumber downy mildew; protectant activity) | pest or weed control at 100 µg/mL (cucumber downy mildew; protectant activity) | pest or weed control at 600 µg/mL (Diamond back moth) | pest or weed control at 400 µg/mL (corn rust) | pest or weed control at 600 µg/mL (carmine spider mite; Tetranychus cinnabarinus, 72 h)
< 50%: inhibition at 25 ppm (rice blast)
100%: pest or weed control at 400 µg/mL (cucumber downy mildew; protectant activity)

Cc1ncnc(NC(=O)Cc2ccc(Oc3ccc(C(F)(F)F)cn3)cc2)c1Cl [CK56, reference compound]
32%: pest or weed control at 600 µg/mL (carmine spider mite; Tetranychus cinnabarinus, 72 h)
70%: pest or weed control at 400 µg/mL (wheat powdery mildew; protectant activity) | pest or weed control at 400 µg/mL (corn rust)
0%: pest or weed control at 600 µg/mL (armyworm) | pest or weed control at 10 µg/mL ([1]; Myzus persicae, foliar, 48 h) | pest or weed control at 100 µg/mL ([1]; Myzus persicae, foliar, 48 h) | pest or weed control at 25 µg/mL (cucumber downy mildew; protectant activity) | pest or weed control at 50 µg/mL (cucumber downy mildew; protectant activity) | pest or weed control at 600 µg/mL (Diamond back moth) | pest or weed control at 10 µg/mL (carmine spider mite; Tetranychus cinnabarinus, 72 h)
25%: pest or weed control at 100 µg/mL (carmine spider mite; Tetranychus cinnabarinus, 72 h)
10%: pest or weed control at 100 µg/mL (cucumber downy mildew; protectant activity)
< 50%: inhibition at 25 ppm (cucumber gray mold) | inhibition at 25 ppm (rice blast)
100%: pest or weed control at 600 µg/mL ([1]; Myzus persicae, foliar, 48 h) | pest or weed control at 400 µg/mL (cucumber downy mildew; protectant activity)

CCc1ncnc(NCCc2ccc(Oc3ccc(C(F)(F)F)cc3)cc2)c1Cl [II-347]
65%: pest or weed control at 10 µg/mL (Diamond back moth; 10 mg/L)
81%: pest or weed control at 1.25 µg/mL ([1]; Myzus persicae, foliar, 48 h)
70%: pest or weed control at 100 µg/mL (Diamond back moth; 100 mg/L)
100%: pest or weed control at 600 ppm (armyworm; mortality after 72 h) | control (test results against green peach aphid) ([1]; 2.5 ppm, death rate after 48 hrs) | pest or weed control at 2.5 µg/mL ([1]; Myzus persicae, foliar, 48 h) | pest or weed control at 5 µg/mL ([1]; Myzus persicae, foliar, 48 h) | pest or weed control at 10 µg/mL ([1]; Myzus persicae, foliar, 48 h) | pest or weed control at 100 µg/mL ([1]; Myzus persicae, foliar, 48 h) | pest or weed control at 600 µg/mL ([1]; Myzus persicae, foliar, 48 h) | pest or weed control at 5 ppm ([1]; Myzus persicae, foliar, 48 h, 5 ppm, death rate after 48 hrs) | pest or weed control at 10 ppm [1, 2] | pest or weed control at 100 ppm [1, 2] | pest or weed control at 600 ppm [1, 2] | pest or weed control at 25 ppm (wheat powdery mildew) | pest or weed control at 100 ppm (wheat powdery mildew) | pest or weed control at 400 ppm (wheat powdery mildew) | pest or weed control at 400 ppm (cucumber downy mildew; read-out: protectant activity against cucumber downy mildew in vivo, 400 ppm) | pest or weed control at 600 µg/mL (Diamond back moth) | pest or weed control at 600 ppm (Diamond back moth; [3]) | pest or weed control at 100 ppm (corn rust) | pest or weed control at 400 ppm (corn rust) | pest or weed control at 10 µg/mL (carmine spider mite; Tetranychus cinnabarinus, 72 h) | pest or weed control at 100 µg/mL (carmine spider mite; Tetranychus cinnabarinus, 72 h) | pest or weed control at 600 µg/mL (carmine spider mite; Tetranychus cinnabarinus, 72 h) | pest or weed control at 10 ppm (carmine spider mite; Tetranychus cinnabarinus, 72 h, 10 ppm, mortality after 72 hrs) | pest or weed control at 100 ppm (carmine spider mite; [4]) | pest or weed control at 600 ppm (carmine spider mite; [4])
90%: Insecticidal activity against carmine spider mite (% ) (carmine spider mite; 5 mg/L)
80 to 99%: inhibition at 25 ppm (cucumber gray mold) | pest or weed control at 100 ppm (cucumber downy mildew) | inhibition at 25 ppm (rice blast) | pest or weed control at 6.25 ppm (corn rust; read-out: protectant activity against corn rust in vivo, 6.25 ppm) | pest or weed control at 25 ppm (corn rust; read-out: protectant activity against corn rust in vivo, 25 ppm)
75%: Insecticidal activity against carmine spider mite (% ) (carmine spider mite; 2.5 mg/L)

CCc1ncnc(NCCc2ccc(Oc3ccc(C(F)(F)F)cc3)nc2)c1Cl [III-202]
80 to 99%: inhibition at 25 ppm (cucumber gray mold) | pest or weed control at 6.25 ppm (wheat powdery mildew; read-out: protectant activity against wheat powdery mildew in vivo, 6.25 ppm) | pest or weed control at 100 ppm (Diamond back moth; 100 ppm, mortality after 72 hrs, read-out: control (test results against diamond back moth)) | inhibition at 25 ppm (rice blast)
94%: pest or weed control at 1.25 µg/mL ([1]; Myzus persicae, foliar, 48 h)
100%: pest or weed control at 100 µg/mL (armyworm) | pest or weed control at 600 µg/mL (armyworm) | pest or weed control at 100 ppm (armyworm; 100 ppm, mortality after 72 h) | pest or weed control at 600 ppm (armyworm; mortality after 72 h) | pest or weed control at 2.5 µg/mL ([1]; Myzus persicae, foliar, 48 h) | pest or weed control at 5 µg/mL ([1]; Myzus persicae, foliar, 48 h) | pest or weed control at 10 µg/mL ([1]; Myzus persicae, foliar, 48 h) | pest or weed control at 100 µg/mL ([1]; Myzus persicae, foliar, 48 h) | pest or weed control at 600 µg/mL ([1]; Myzus persicae, foliar, 48 h) | pest or weed control at 10 ppm [1, 2] | pest or weed control at 100 ppm [1, 2] | pest or weed control at 600 ppm [1, 2] | pest or weed control at 25 µg/mL (wheat powdery mildew; read-out: control effect against wheat powdery mildew (%), 25 mg/L, protectant activity) | pest or weed control at 100 µg/mL (wheat powdery mildew; read-out: control effect against wheat powdery mildew (%), 100 mg/L, protectant activity) | pest or weed control at 400 µg/mL (wheat powdery mildew; protectant activity) | pest or weed control at 25 ppm (wheat powdery mildew) | pest or weed control at 100 ppm (wheat powdery mildew) | pest or weed control at 400 ppm (wheat powdery mildew) | pest or weed control at 6.25 µg/mL (cucumber downy mildew; read-out: control effect against cucumber downy mildew (%), 6.25 mg/L, protectant activity) | pest or weed control at 12.5 µg/mL (cucumber downy mildew; read-out: control effect against cucumber downy mildew (%), 12.5 mg/L, protectant activity) | pest or weed control at 25 µg/mL (cucumber downy mildew; protectant activity) | pest or weed control at 50 µg/mL (cucumber downy mildew; protectant activity) | pest or weed control at 100 µg/mL (cucumber downy mildew; protectant activity) | pest or weed control at 400 µg/mL (cucumber downy mildew; protectant activity) | pest or weed control at 6.25 ppm (cucumber downy mildew; read-out: protectant activity against cucumber downy mildew in vivo, 6.25 ppm) | pest or weed control at 12.5 ppm (cucumber downy mildew; read-out: protectant activity against cucumber downy mildew in vivo, 12.5 ppm) | pest or weed control at 25 ppm (cucumber downy mildew; read-out: protectant activity against cucumber downy mildew in vivo, 25 ppm) | pest or weed control at 50 ppm (cucumber downy mildew; read-out: protectant activity against cucumber downy mildew in vivo, 50 ppm) | pest or weed control at 100 ppm (cucumber downy mildew) | pest or weed control at 600 ppm (Diamond back moth; [3]) | pest or weed control at 100 ppm (corn rust) | pest or weed control at 400 ppm (corn rust) | pest or weed control at 100 ppm (carmine spider mite; [4]) | pest or weed control at 600 ppm (carmine spider mite; [4])
65%: pest or weed control at 10 µg/mL (armyworm)
95%: pest or weed control at 6.25 µg/mL (wheat powdery mildew; read-out: control effect against wheat powdery mildew (%), 6.25 mg/L, protectant activity)

Cc1ncnc(NC(=O)Cc2ccc(Oc3ccc(C(F)(F)F)cc3Cl)cc2)c1Cl [CK58, reference compound]
< 50%: inhibition at 25 ppm (rice blast)
0%: pest or weed control at 600 µg/mL (armyworm) | pest or weed control at 10 µg/mL ([1]; Myzus persicae, foliar, 48 h) | pest or weed control at 100 µg/mL ([1]; Myzus persicae, foliar, 48 h) | inhibition at 25 ppm (cucumber gray mold) | pest or weed control at 400 µg/mL (wheat powdery mildew; protectant activity) | pest or weed control at 400 µg/mL (cucumber downy mildew; protectant activity) | pest or weed control at 600 µg/mL (Diamond back moth) | pest or weed control at 400 µg/mL (corn rust) | pest or weed control at 600 µg/mL (carmine spider mite; Tetranychus cinnabarinus, 72 h)
100%: pest or weed control at 600 µg/mL ([1]; Myzus persicae, foliar, 48 h)

Cc1ncnc(NCc2ccc(Oc3nc(Cl)c(Cl)cc3Cl)cc2)c1Cl [CK33, reference compound]
41%: pest or weed control at 600 µg/mL (carmine spider mite; Tetranychus cinnabarinus, 72 h)
29%: pest or weed control at 600 µg/mL (Diamond back moth)
100%: pest or weed control at 600 µg/mL (armyworm)
< 50%: inhibition at 25 ppm (rice blast)
0%: pest or weed control at 10 µg/mL (armyworm) | pest or weed control at 100 µg/mL (armyworm) | pest or weed control at 600 µg/mL ([1]; Myzus persicae, foliar, 48 h) | inhibition at 25 ppm (cucumber gray mold) | pest or weed control at 400 µg/mL (wheat powdery mildew; protectant activity) | pest or weed control at 400 µg/mL (cucumber downy mildew; protectant activity) | pest or weed control at 400 µg/mL (corn rust)

Reference: patent US9770026B2, “Substituted pyrimidine compound and uses thereof” (Shenyang Sinochem Agrochemicals R&D Co., Ltd., priority 2012, dated 2017)
